Assay [1] relates to mice with acute myocardial infarction. Briefly: Mouse model of acute myocardial infarction, change in left ventricular ejection fraction (echocardiography). The format is in vivo, mouse (SCID beige). To be noted: 0.1 mg drug injected to heart; measured three weeks after surgery.
Experimental: Briefly, 8-week old male severe combined immunodeficient (SCID) beige mice were anesthetized with isoflurane. Following surgical preparation, a 2 cm vertical incision was performed in the midclavicular line for a lateral thoracotomy. The left anterior descending was ligated using 7-0 silk. Animals then received intramyocardial injections of injected at two peri-infarct sites with 10^5 cells (or phosphate buffered saline as a vehicle) in a total of 20 μl (10 μl/site). Echocardiography measurements were taken (to measure change left ventricular ejection fraction) at day 1 post and week 3 post infarction.
Acute myocardial infarction was applied to the three-month-old male severe combined immunodeficient (SCID)—beige mice as previously described. 1×10^5 desired cells or 20 μl of 14 mM drug (BIO or JW67) or exosomes were injected to the SCID heart for rescuing.
Echocardiography. Echocardiography study was performed in the SCID beige in 24 hr (baseline) and 3 weeks after surgery using Vevo 3100 or 770 Imaging System (Visual Sonics) as described^8. The average of the left ventricular ejection fraction was analyzed from multiple left ventricular end-diastolic and left ventricular end-systolic measurements.
Assay [2] concerns β-catenin levels in explant-derived cells (EDCs). Put plainly: β-catenin ELISA in explant-derived cells (EDCs). Type of assay: cell-based, human. To be noted: EDCs from Donor1 and Donor12; BIO for 72 hours compared with sphere formation. In general terms: An ELISA detects its analyte on a solid surface through an enzyme-linked reagent.
Assay [3] concerns β-catenin levels in immortalized CDCs. Briefly: Total β-catenin ELISA in immortalized CDCs. The following applies: SV40 T+t immortalized CDCs from Donor2; 5 μM BIO for 72 hours vs 0 μM. The format is cell-based, human. Here is the method:
(§1) Cell lysate and protein assay. 4×10^5 cells were collected and pelleted at 1,000 rpm for 5 min at 4° C. Cell pellets were thoroughly mixed with 1× lysis buffer (Affymetrix eBioscience InstantOne ELISA kit) by vortexing and rotating for 10 min at room temperature. Protein lysate was isolated from the cell lysate mixture after centrifugation at 14,000 rpm for 15 min at 4° C. Protein concentration was determined by DC™ Protein Assay kit (Bio-Rad).
(§2) ELISA. Protein collection and protein concentration determination were as described above. Total β-catenin ELISA was performed according the protocol described with final sample concentration of 0.01 mg/ml and positive control of 0.1 mg/ml (ThermoFisher eBioscience InstantOne™ ELISA).

The test system of assay [4] is β-catenin levels in kidney cortex cells. Put plainly: β-catenin levels in kidney cortex cells. To be noted: FIG. 18B. Type of assay: cell-based.
The test system of another assay is β-catenin levels in CDCs. Put plainly: Total β-catenin ELISA in CDCs. The format is cell-based, human. Here is the method:
(§3) Referring to FIG. 9B, CDCs from Donor 5 were treated with different concentrations of BIO (Sigma-Aldaich, Cat #B1685), a GSK3β inhibitor, for 72 hours. The cells were then collected and lysed with 1× lysis buffer supplied Total β-catenin ELISA (Affymetrix eBioscience InstantOne™ ELISA, Cat. #85-86141-11). Total β-catenin ELISA was performed as per manufacturer's instructions, except that 0.01 mg/mL final protein concentration was used in the assay.
Referring to FIG. 10, the effect of BIO (as measured by sustained β-catenin activation per ELISA) was measured in CDCs from Donor10. Zero hour is immediately drug wash-off time point following a 72 hour of 5 μM BIO treatment period.
as §1, §2

The test system of a further assay is CD90 expression in CDCs. Put plainly: Flow cytometry of CD90 expression in CDCs. Type of assay: cell-based, human. Here is the method: Referring to FIG. 2, CDCs from two donors (Donor1 and Donor12) were prepared as described herein. The attached CDCs were treated with 30 μM CHIR (Selleckchem, Cat. #S1263), a GSK3β inhibitor, or with no treatment for 72 hours. The cells were then collected, washed with 1% bovine serum albumin (BSA) in 1× phosphated-buffered saline (PBS), and stained with FITC Mouse Anti-Human CD90 (BD Biosciences, Cat. #555595). Flow cytometry was then conducted in BD FACSCanton™ II machine to measure CD90 expression in cells.
as §3
Flow cytometry. Cells were harvested and counted (2×10^5 cells per condition). Cells were washed with 1% bovine serum albumin (BSA) in 1× Phosphated-buffered saline (PBS), and stained with the appropriate antibody (BD Pharmingen) for 1 hr at 4° C. The cells were then washed again and resuspended in 1% BSA in 1×PBS. BD Cytofix/Cytoperm™ kit was used for cell permeabilization before staining, such as LRP5/6 staining. […]
In general terms: In flow cytometry, cells or beads pass a laser one at a time.

The test system of assay [5] is CD90 expression in immortalized CDCs. Briefly: Flow cytometry of CD90 expression in immortalized CDCs. Type of assay: cell-based, human. The following applies: Wnt3a for 72 hours, vs vehicle. Here is the method: Referring to FIG. 3-5, CDCs from immortalized Donor2 were plated on either fibronectin (FN; VWR, Cat. #356009)-coated or CellBIND® (CB)-coated flasks. Attached cells were treated with Wnt3a or with PBS vehicle (ddH2O) for 72 hours. The cells were then analyzed using flow cytometry for CD90 expression with the same protocol as described herein.
Flow cytometry. Cells were harvested and counted (2×10^5 cells per condition). Cells were washed with 1% bovine serum albumin (BSA) in 1× Phosphated-buffered saline (PBS), and stained with the appropriate antibody (BD Pharmingen) for 1 hr at 4° C. The cells were then washed again and resuspended in 1% BSA in 1×PBS. BD Cytofix/Cytoperm™ kit was used for cell permeabilization before staining, such as LRP5/6 staining. The flow cytometry was performed in BD FACSCanto™ II machine.

For `O=C1Nc2ccccc2C12OCC1(CO2)COC2(OC1)C(=O)Nc1ccccc12` (centres unmarked) [JW67, Trispiro[3H-indole-3,2′-[1,3]dioxane-5′5″-[1,3]dioxane-2″,3′″-[3H]indole]-2,2′″(1H,1′″H)-dione(9Cl)], the “cardiac recovery (cardiac ejection fraction change)” value in assay [1] is listed as “improves cardiac recovery”.
`O=C1Nc2cc(Br)ccc2/C1=C1/Nc2ccccc2/C1=N\O` [BIO, 6-bromoindirubin-3′-oxime]: in assay [2], the β-catenin expression entry was “equal or better enhanced β-catenin expression”. The “cardiac recovery (cardiac ejection fraction change)” value in assay [1] is “improves cardiac recovery”. For the same molecule, the β-catenin restoration result was “successful β-catenin restoration” in assay [3]; “successful β-catenin restoration” in the assay with β-catenin levels in CDCs (non-potent CDCs from Donor5, 10 μM BIO for 72 hours vs 0 μM); “successful β-catenin restoration” in the assay on β-catenin levels in CDCs (non-potent CDCs from Donor6-2, 5 μM BIO for 72 hours vs control vehicle). In addition, the β-catenin levels entry in assay [4] is reported as “further increases β-catenin levels”. In the assay on β-catenin levels in CDCs (CDCs from Donor5, different concentrations of BIO for 72 hours), the “levels of β-catenin” value is recorded as “increased with increasing BIO concentration”. Further, the “time of peak β-catenin activation after drug washout” value in the assay on β-catenin levels in CDCs (CDCs from Donor10, after 72 hour 5 μM BIO treatment) turned out to be 24 h. For the same molecule, in the assay with β-catenin levels in CDCs (FIG. 10, β-catenin activation per ELISA), the “duration of effect of BIO treatment after washout” value is reported as “at least 24 hours”. Also, the CD90 levels result in the assay with CD90 expression in CDCs (CDCs from Donor5, increasing BIO concentrations) is reported as “decreasing CD90 levels with increasing BIO concentrations”.
Regarding `Cc1cnc(-c2cnc(NCCNc3ccc(C#N)cn3)nc2-c2ccc(Cl)cc2Cl)[nH]1` [CHIR, 6-[[2-[[4-(2,4-Dichlorophenyl)-5-(5-methyl-1H-imidazol-2-yl)-2-pyrimidinyl]amino]ethyl]amino]-3-pyridinecarbonitrile], the CD90 levels result in the assay with CD90 expression in CDCs (30 μM CHIR for 72 hours, CDCs from Donor1 and Donor12, vs no treatment) was “decreased the CD90 levels”.

B1: Wnt3a: activator of the Wnt signaling pathway (protein, UniProt P56704 19-352, looked up)
Protein Wnt-3a: SYPIWWSLAVGPQYSSLGSQPILCASIPGLVPKQLRFCRNYVEIMPSVAEGIKIGIQECQHQFRGRRWNCTTVHDSLAIFGPVLDKATRESAFVHAIASAGVAFAVTRSCAEGTAAICGCSSRHQGSPGKGWKWGGCSEDIEFGGMVSREFADARENRPDARSAMNRHNNEAGRQAIASHMHLKCKCHGLSGSCEVKTCWWSQPDFRAIGDFLKDKYDSASEMVVEKHRESRGWVETLRPRYTYFKVPTERDLVYYEASPNFCEPNPETGSFGTRDRTCNVSSHGIDGCDLLCCGRGHNARAERRREKCRCVFHWCCYVSCQECTRVYDVHTCK
Consider B1, for which the CD90 level entry in assay [5] (immortalized Donor2 CDCs on CellBIND (CB)-coated flasks) was “no such effect is observed”; in assay [5] (immortalized Donor2 CDCs on fibronectin (FN)-coated flasks), “decreased the CD90 level”.

Source of the values: patent US20210032598A1, “ACTIVATION-INDUCED TISSUE-EFFECTOR CELLS SUITABLE FOR CELL THERAPY AND EXTRACELLUAR VESICLES DERIVED THEREFROM” (Capricor, Inc., priority 2018, published 2021).
